Measurements published in BigSolDB 2.1.

Oc1ccc([C@@H]2COc3cc(O)ccc3C2)cc1
solubility (mole fraction)
Settings	in isobutanol	in isopentanol	in isopropanol	in n-butanol	in n-heptane	in n-pentanol
273.15 K	0.0174	0.0226	0.0295	0.0242	0.000431	0.0235
278.15 K	0.02	0.0261	0.035	0.0284	0.00049	0.0273
283.15 K	0.0229	0.0301	0.0412	0.0331	0.000554	0.0317
288.15 K	0.0261	0.0345	0.0482	0.0384	0.000624	0.0365
293.15 K	0.0296	0.0394	0.0561	0.0442	0.000699	0.0419
298.15 K	0.0334	0.0447	0.065	0.0508	0.000781	0.0478
303.15 K	0.0376	0.0506	0.0749	0.0581	0.00087	0.0544
308.15 K	0.0421	0.057	0.086	0.0661	0.000964	0.0616
313.15 K	0.047	0.0639	0.0982	0.0749	0.00107	0.0695
318.15 K	0.0523	0.0715	0.112	0.0846	0.00117	0.078
323.15 K	0.058	0.0797	0.127	0.0951	0.00129	0.0874
328.15 K	0.0641	0.0885	0.143	0.107	0.00141	0.0975
333.15 K	0.0706	0.098	0.161	0.119	0.00155	0.108
